Test results published in patent US20250179032A1, “HETEROCYCLIC INHIBITORS OF GLUT9 FOR TREATMENT OF DISEASE” (HORIZON THERAPEUTICS IRELAND DAC, priority 2022, published 2025).

Molecular target: T1, H. sapiens SLC2A9 variant 2 (GLUT9B) (Homo sapiens, UniProt Q9NRM0)
T1 sequence (Q9NRM0 1-511 isoform Q9NRM0-2): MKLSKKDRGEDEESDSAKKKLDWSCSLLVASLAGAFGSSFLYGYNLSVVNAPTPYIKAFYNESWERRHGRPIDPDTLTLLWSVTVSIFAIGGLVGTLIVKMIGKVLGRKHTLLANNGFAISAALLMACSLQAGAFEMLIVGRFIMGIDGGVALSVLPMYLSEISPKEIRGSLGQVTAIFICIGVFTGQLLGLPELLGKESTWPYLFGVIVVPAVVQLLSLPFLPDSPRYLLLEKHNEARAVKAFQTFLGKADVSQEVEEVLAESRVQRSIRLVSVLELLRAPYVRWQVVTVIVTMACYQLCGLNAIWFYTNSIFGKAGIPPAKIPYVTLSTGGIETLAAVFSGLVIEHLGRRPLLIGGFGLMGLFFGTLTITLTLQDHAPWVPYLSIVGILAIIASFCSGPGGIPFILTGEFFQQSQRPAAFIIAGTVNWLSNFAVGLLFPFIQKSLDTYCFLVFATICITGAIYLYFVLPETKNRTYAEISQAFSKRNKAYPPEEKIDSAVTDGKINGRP
Assay: GLUT9 functional assay: uric acid uptake in HEK293T cells, allantoin formation by MS/MS as proxy of GLUT9B inhibition
Type: cell-based
Settings: 15 minute assay; HEK293T cells stably expressing GLUT9B and transiently A. oryzae uricase; uric acid 0.3 mM, 37° C.; read-out: 15 min IC50
How it was run: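 Inhibition of GLUT9B-mediated urate uptake read as reduced allantoin formation, measured by MS/MS against allantoin standards in HEK293T matrix with log-logistic fitting. Stable GLUT9B HEK293T cells carrying transfected A. oryzae uricase were incubated 15 or 60 min at 37° C with uric acid at Km (0.3 mM), pH 7.4 gluconate buffer.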

Row | Compound | IC50 [nM]
1 | O=C(O)C1CCN(c2nc(CCC3CC3)cnc2-c2cc(F)c3occc3c2)CC1 [Compound 73, 1-(6-(2-cyclopropylethyl)-3-(7-fluorobenzofuran-5-yl)pyrazin-2-yl)piperidine-4-carboxylic acid] | < 500
2 | CCCCc1cnc(-c2ccc3c(c2)CC(C)(C)O3)c(N2CCC(C(=O)O)CC2)n1 [Compound 79, 1-(6-butyl-3-(2,2-dimethyl-2,3-dihydrobenzofuran-5-yl)pyrazin-2-yl)piperidine-4-carboxylic acid] | > 2000
3 | CN(C)S(=O)(=O)NC(=O)C1CCN(c2nc(COCC(F)(F)F)cnc2-c2cc(F)c3occc3c2)CC1 [Compound 80, N-(N,N-dimethylsulfamoyl)-1-(3-(7-fluorobenzofuran-5-yl)-6-((2,2,2-trifluoroethoxy)methyl)pyrazin-2-yl)piperidine-4-carboxamide] | 500 to 2000
4 | O=c1[nH]c(C2CCN(c3nc(COCC(F)(F)F)cnc3-c3cc(F)c4occc4c3)CC2)ns1 [Compound 81, 3-(1-(3-(7-fluorobenzofuran-5-yl)-6-((2,2,2-trifluoroethoxy)methyl)pyrazin-2-yl)piperidin-4-yl)-1,2,4-thiadiazol-5(4H)-one] | 500 to 2000
5 | O=c1[nH]c(C2CCN(c3nc(COCC(F)(F)F)cnc3-c3cc(F)c4occc4c3)CC2)no1 [Compound 82, 3-(1-(3-(7-fluorobenzofuran-5-yl)-6-((2,2,2-trifluoroethoxy)methyl)pyrazin-2-yl)piperidin-4-yl)-1,2,4-oxadiazol-5(4H)-one] | < 500
6 | O=S1NC(C2CCN(c3nc(COCC(F)(F)F)cnc3-c3cc(F)c4occc4c3)CC2)=NO1 (stereo not drawn) [Compound 83, 4-(1-(3-(7-fluorobenzofuran-5-yl)-6-((2,2,2-trifluoroethoxy)methyl)pyrazin-2-yl)piperidin-4-yl)-3H-1,2,3,5-oxathiadiazole 2-oxide] | 500 to 2000
7 | CS(=O)(=O)CCc1cnc(-c2cc(F)c3occc3c2)c(N2CCC(C(=O)O)CC2)n1 [Compound 84, 1-(3-(7-fluorobenzofuran-5-yl)-6-(2-(methylsulfonyl)ethyl)pyrazin-2-yl)piperidine-4-carboxylic acid] | > 2000
8 | O=C(O)CC1CCN(c2nc(CCC(F)(F)F)cnc2-c2cc(F)c3occc3c2)C1 (stereo not drawn) [Compound 88, 2-(1-(3-(7-fluorobenzofuran-5-yl)-6-(3,3,3-trifluoropropyl)pyrazin-2-yl)pyrrolidin-3-yl)acetic acid] | 500 to 2000
9 | O=C(O)CCC1CN(c2nc(CCC(F)(F)F)cnc2-c2cc(F)c3occc3c2)C1 [Compound 89, 3-(1-(3-(7-fluorobenzofuran-5-yl)-6-(3,3,3-trifluoropropyl)pyrazin-2-yl)azetidin-3-yl)propanoic acid] | 500 to 2000
10 | O=C(O)CC1CN(c2nc(CCC(F)(F)F)cnc2-c2cc(F)c3occc3c2)C1 [Compound 90, 2-(1-(3-(7-fluorobenzofuran-5-yl)-6-(3,3,3-trifluoropropyl)pyrazin-2-yl)azetidin-3-yl)acetic acid] | 500 to 2000
11 | O=C(O)C1(O)CCN(c2nc(CCC(F)(F)F)cnc2-c2cc(F)c3occc3c2)CC1 [Compound 91, 1-(3-(7-fluorobenzofuran-5-yl)-6-(3,3,3-trifluoropropyl)pyrazin-2-yl)-4-hydroxypiperidine-4-carboxylic acid] | < 500
12 | COC1(C(=O)O)CCN(c2nc(CCC(F)(F)F)cnc2-c2cc(F)c3occc3c2)CC1 [Compound 92, 1-(3-(7-fluorobenzofuran-5-yl)-6-(3,3,3-trifluoropropyl)pyrazin-2-yl)-4-methoxypiperidine-4-carboxylic acid] | 500 to 2000
13 | N#CC1(C(=O)O)CCN(c2nc(CCC(F)(F)F)cnc2-c2cc(F)c3occc3c2)CC1 [Compound 93, 4-cyano-1-(3-(7-fluorobenzofuran-5-yl)-6-(3,3,3-trifluoropropyl)pyrazin-2-yl)piperidine-4-carboxylic acid] | 500 to 2000
14 | O=C(O)C1C2CC1CN(c1nc(CCC(F)(F)F)cnc1-c1cc(F)c3occc3c1)C2 (stereo not drawn) [Compound 94, 3-(3-(7-fluorobenzofuran-5-yl)-6-(3,3,3-trifluoropropyl)pyrazin-2-yl)-3-azabicyclo[3.1.1]heptane-6-carboxylic acid] | 500 to 2000
15 | O=C(O)C1CC2(CCN(c3nc(CCC(F)(F)F)cnc3-c3cc(F)c4occc4c3)CC2)C1 [Compound 95, 7-(3-(7-fluorobenzofuran-5-yl)-6-(3,3,3-trifluoropropyl)pyrazin-2-yl)-7-azaspiro[3.5]nonane-2-carboxylic acid] | < 500
16 | COCCOc1ncc(-c2ncc(CCC(F)(F)F)nc2N2CCC(C(=O)O)CC2)cc1F [Compound 98, 1-(3-(5-fluoro-6-(2-methoxyethoxy)pyridin-3-yl)-6-(3,3,3-trifluoropropyl)pyrazin-2-yl)piperidine-4-carboxylic acid] | > 2000
17 | O=C(O)CC1CC2(C1)CN(c1nc(CCC(F)(F)F)cnc1-c1ccc3occc3c1)C2 [Compound 101, 2-(2-(3-(benzofuran-5-yl)-6-(3,3,3-trifluoropropyl)pyrazin-2-yl)-2-azaspiro[3.3]heptan-6-yl)acetic acid] | > 2000
18 | O=C(O)C1C[C@@H]2CN(c3nc(CCC(F)(F)F)cnc3-c3ccc4occc4c3)C[C@@H]2C1 (stereo partly drawn) [Compound 102, (3aR,6aS)-2-(3-(benzofuran-5-yl)-6-(3,3,3-trifluoropropyl)pyrazin-2-yl)octahydrocyclopenta[c]pyrrole-5-carboxylic acid] | 500 to 2000

Other lines, results leading:

Row | IC50 [nM] | Compound
19 | 500 to 2000 | COCCOc1ccc(-c2ncc(CCC3CC3)nc2N2CCC(C(=O)O)CC2)cc1 [Compound 74, 1-(6-(2-cyclopropylethyl)-3-(4-(2-methoxyethoxy)phenyl)pyrazin-2-yl)piperidine-4-carboxylic acid]
20 | > 2000 | O=C(O)C1CCN(c2nc(COCC(F)(F)F)cnc2-c2ccc(OC3CC3)cc2)CC1 [Compound 75, 1-(3-(4-cyclopropoxyphenyl)-6-((2,2,2-trifluoroethoxy)methyl)pyrazin-2-yl)piperidine-4-carboxylic acid]
21 | 500 to 2000 | O=C(O)C1CCN(c2nc(COCC(F)(F)F)cnc2-c2ccc(OC3CC3)c(F)c2)CC1 [Compound 76, 1-(3-(4-cyclopropoxy-3-fluorophenyl)-6-((2,2,2-trifluoroethoxy)methyl)pyrazin-2-yl)piperidine-4-carboxylic acid]
22 | > 2000 | O=C(O)C1CCN(c2nc(COCC(F)(F)F)cnc2-c2ccc(OCC3CC3)cc2)CC1 [Compound 77, 1-(3-(4-(cyclopropylmethoxy)phenyl)-6-((2,2,2-trifluoroethoxy)methyl)pyrazin-2-yl)piperidine-4-carboxylic acid]
23 | > 2000 | O=C(O)C1CCN(c2nc(COCC(F)(F)F)cnc2-c2ccc(OCC3CC3)c(F)c2)CC1 [Compound 78, 1-(3-(4-(cyclopropylmethoxy)-3-fluorophenyl)-6-((2,2,2-trifluoroethoxy)methyl)pyrazin-2-yl)piperidine-4-carboxylic acid]
24 | > 2000 | COCCOc1ccc(-c2ncc(CCS(C)(=O)=O)nc2N2CCC(C(=O)O)CC2)cc1 [Compound 85, 1-(3-(4-(2-methoxyethoxy)phenyl)-6-(2-(methylsulfonyl)ethyl)pyrazin-2-yl)piperidine-4-carboxylic acid]
25 | 500 to 2000 | COCCOc1ccc(-c2ncc(CCC(F)(F)F)nc2N2CCC(C(=O)O)CC2)cc1 [Compound 86, 1-(3-(4-(2-methoxyethoxy)phenyl)-6-(3,3,3-trifluoropropyl)pyrazin-2-yl)piperidine-4-carboxylic acid]
26 | > 2000 | O=C(O)C1CCN(c2nc(CCC(F)(F)F)cnc2-c2cnc3c(c2)CCO3)CC1 [Compound 87, 1-(3-(2,3-dihydrofuro[2,3-b]pyridin-5-yl)-6-(3,3,3-trifluoropropyl)pyrazin-2-yl)piperidine-4-carboxylic acid]
27 | > 2000 | COCCOc1ccc(-c2ncc(CCC(F)(F)F)nc2N2CCC(C(=O)O)CC2)cn1 [Compound 97, 1-(3-(6-(2-methoxyethoxy)pyridin-3-yl)-6-(3,3,3-trifluoropropyl)pyrazin-2-yl)piperidine-4-carboxylic acid]
28 | > 2000 | O=C(O)C1CCN(c2nc(CCC(F)(F)F)cnc2-c2ccc(OCCO)cc2)CC1 [Compound 99, 1-(3-(4-(2-hydroxyethoxy)phenyl)-6-(3,3,3-trifluoropropyl)pyrazin-2-yl)piperidine-4-carboxylic acid]
29 | < 500 | COc1ccc(-c2ncc(CCC(F)(F)F)nc2N2CCC(OCC(=O)O)CC2)cc1 [Compound 100, 2-((1-(3-(4-methoxyphenyl)-6-(3,3,3-trifluoropropyl)pyrazin-2-yl)piperidin-4-yl)oxy)acetic acid]

Same assay, conditions: 60 minute assay; HEK293T cells stably expressing GLUT9B and transiently A. oryzae uricase; uric acid 0.3 mM, 37° C.; read-out: 60 min IC50

Row | IC50 [nM] | Compound
30 | < 500 | O=C(O)C1CCN(c2nc(CCCOC(F)(F)F)cnc2-c2cc(F)c3occc3c2)CC1 [Compound 96, 1-(3-(7-fluorobenzofuran-5-yl)-6-(3-(trifluoromethoxy)propyl)pyrazin-2-yl)piperidine-4-carboxylic acid]
